Here are results for seven compounds from ChEMBL document CHEMBL5465560, “Selectivity Literature for EUbOPEN Chemogenomic Library” (2024).

Experiment [1] has as its target Wee1-like protein kinase (Homo sapiens) (UniProt P30291). In words: Selectivity interaction (KinomeScan (DiscoverX)) EUB0000655a WEE1. As to conditions: at 10 µM.
Experiment [2] concerns the target T1, Mitogen-activated protein kinase kinase kinase 5 (Homo sapiens) (UniProt Q99683).
T1 sequence (whole entry): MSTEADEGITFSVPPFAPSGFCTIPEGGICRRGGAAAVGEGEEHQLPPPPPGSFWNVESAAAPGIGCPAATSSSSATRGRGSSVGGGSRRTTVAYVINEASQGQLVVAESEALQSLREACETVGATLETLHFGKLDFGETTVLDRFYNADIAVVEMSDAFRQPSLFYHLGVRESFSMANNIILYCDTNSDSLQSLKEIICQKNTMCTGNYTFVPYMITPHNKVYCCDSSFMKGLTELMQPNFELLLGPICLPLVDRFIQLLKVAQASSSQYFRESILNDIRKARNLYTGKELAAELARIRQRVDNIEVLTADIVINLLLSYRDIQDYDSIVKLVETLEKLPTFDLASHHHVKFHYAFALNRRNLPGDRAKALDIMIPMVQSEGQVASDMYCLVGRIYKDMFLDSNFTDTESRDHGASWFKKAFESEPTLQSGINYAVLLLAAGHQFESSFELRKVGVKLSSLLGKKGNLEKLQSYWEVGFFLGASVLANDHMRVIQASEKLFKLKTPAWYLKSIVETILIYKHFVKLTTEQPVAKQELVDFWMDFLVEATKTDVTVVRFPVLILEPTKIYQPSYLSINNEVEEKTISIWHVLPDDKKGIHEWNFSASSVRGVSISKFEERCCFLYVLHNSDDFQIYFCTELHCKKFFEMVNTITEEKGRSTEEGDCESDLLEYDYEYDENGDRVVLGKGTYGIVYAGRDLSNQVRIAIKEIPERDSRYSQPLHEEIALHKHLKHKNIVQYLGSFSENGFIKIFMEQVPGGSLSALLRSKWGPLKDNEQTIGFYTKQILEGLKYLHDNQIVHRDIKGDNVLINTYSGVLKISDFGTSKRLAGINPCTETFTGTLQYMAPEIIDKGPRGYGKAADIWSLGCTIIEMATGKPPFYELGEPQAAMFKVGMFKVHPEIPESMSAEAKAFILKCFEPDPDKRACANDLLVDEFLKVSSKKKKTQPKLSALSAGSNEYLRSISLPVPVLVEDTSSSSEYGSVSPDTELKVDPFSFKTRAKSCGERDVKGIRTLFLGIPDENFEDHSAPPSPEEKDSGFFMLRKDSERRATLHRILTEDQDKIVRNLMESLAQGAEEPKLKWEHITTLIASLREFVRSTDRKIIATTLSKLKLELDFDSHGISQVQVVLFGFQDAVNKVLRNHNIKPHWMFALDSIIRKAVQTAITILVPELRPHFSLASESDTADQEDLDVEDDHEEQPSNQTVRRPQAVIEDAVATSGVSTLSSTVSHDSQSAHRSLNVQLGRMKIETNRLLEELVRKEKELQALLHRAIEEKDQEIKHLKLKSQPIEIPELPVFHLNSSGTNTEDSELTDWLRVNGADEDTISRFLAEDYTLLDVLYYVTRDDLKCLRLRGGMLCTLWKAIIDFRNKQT
In words: Selectivity interaction (KinomeScan (DiscoverX)) EUB0001079a MAP3K5. As to conditions: at 1 µM.

The target of experiment [3] is 5-hydroxytryptamine receptor 3A (Homo sapiens, UniProt P46098). In words: Selectivity interaction (Serotonin 5HT3 receptor assay, human recombinant ) EUB0000877a HTR3A.
Chain of 5-hydroxytryptamine receptor 3A (P46098 whole entry): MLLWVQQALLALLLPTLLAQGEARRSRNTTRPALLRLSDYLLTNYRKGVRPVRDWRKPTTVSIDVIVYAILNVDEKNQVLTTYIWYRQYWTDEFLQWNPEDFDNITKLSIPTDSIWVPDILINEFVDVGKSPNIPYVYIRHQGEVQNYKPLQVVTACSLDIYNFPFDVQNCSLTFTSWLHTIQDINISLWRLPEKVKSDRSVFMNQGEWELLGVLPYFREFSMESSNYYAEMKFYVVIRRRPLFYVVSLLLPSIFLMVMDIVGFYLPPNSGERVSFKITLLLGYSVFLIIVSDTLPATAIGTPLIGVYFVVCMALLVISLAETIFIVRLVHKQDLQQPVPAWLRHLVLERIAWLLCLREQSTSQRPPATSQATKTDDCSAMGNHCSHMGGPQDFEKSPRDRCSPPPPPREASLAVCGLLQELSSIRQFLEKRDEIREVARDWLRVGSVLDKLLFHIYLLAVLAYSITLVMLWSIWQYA
In experiment [4] the target is T2, Mitogen-activated protein kinase kinase kinase kinase 2 (Homo sapiens) (UniProt Q12851).
T2 sequence (whole entry): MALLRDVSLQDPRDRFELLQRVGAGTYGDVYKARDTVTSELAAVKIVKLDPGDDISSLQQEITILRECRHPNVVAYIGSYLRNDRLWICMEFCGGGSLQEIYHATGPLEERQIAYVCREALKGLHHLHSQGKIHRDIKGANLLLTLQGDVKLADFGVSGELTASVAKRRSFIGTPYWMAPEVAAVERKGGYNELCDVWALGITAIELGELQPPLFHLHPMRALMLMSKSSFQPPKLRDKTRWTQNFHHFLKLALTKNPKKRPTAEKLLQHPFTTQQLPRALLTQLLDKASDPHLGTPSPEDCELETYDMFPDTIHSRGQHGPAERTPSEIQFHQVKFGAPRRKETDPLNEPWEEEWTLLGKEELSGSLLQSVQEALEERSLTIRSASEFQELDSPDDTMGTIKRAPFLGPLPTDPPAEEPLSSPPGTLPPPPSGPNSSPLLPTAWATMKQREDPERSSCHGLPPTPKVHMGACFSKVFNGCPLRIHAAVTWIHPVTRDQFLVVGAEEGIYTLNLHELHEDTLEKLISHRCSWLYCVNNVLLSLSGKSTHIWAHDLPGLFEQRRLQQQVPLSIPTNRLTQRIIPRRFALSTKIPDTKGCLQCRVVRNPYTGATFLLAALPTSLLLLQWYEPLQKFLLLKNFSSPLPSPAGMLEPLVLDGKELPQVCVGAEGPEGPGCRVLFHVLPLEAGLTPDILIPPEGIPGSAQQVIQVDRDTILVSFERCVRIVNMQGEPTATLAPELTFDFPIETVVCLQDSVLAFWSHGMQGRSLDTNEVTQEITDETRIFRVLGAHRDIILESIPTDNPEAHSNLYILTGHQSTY
The experiment is described as follows: Selectivity interaction (ActivX KiNativ screen (kinase selectivity in THP-1 cell lysates)) EUB0000639a MAP4K2. The format is subcellular. As to conditions: lysate, at 0.2 µM.

For experiment [5], the target named is T3, Serine/threonine-protein kinase 3 (Homo sapiens) (UniProt Q13188).
T3 sequence (whole entry): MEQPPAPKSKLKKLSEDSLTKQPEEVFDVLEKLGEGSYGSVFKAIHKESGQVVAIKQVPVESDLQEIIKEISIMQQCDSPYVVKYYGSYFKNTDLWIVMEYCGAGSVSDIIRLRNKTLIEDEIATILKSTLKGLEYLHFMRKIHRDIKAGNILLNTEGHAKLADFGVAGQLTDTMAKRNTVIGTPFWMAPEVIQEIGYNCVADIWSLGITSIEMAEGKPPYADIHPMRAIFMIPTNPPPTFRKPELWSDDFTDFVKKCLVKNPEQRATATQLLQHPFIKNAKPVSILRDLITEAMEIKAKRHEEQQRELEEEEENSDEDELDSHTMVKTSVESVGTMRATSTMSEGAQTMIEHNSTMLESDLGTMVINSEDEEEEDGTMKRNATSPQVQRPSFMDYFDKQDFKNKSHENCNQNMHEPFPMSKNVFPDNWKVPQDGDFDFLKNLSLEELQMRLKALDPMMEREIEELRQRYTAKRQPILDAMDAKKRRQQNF
Conditions: at 10 µM.

Experiment [6] addresses Ribosomal protein S6 kinase alpha-3 (Homo sapiens, UniProt P51812). In words: Selectivity interaction (KinomeScan (DiscoverX)) EUB0000695a RPS6KA3. As to conditions: at 100 nM.
Experiment [7] addresses Protein polybromo-1 (Homo sapiens) (UniProt Q86U86). The experiment is described as follows: Selectivity interaction (Bromodomain panel (DSF asssay)) EUB0000270b PBRM1.

Chain of Wee1-like protein kinase (Homo sapiens) (P30291 whole entry, looked up): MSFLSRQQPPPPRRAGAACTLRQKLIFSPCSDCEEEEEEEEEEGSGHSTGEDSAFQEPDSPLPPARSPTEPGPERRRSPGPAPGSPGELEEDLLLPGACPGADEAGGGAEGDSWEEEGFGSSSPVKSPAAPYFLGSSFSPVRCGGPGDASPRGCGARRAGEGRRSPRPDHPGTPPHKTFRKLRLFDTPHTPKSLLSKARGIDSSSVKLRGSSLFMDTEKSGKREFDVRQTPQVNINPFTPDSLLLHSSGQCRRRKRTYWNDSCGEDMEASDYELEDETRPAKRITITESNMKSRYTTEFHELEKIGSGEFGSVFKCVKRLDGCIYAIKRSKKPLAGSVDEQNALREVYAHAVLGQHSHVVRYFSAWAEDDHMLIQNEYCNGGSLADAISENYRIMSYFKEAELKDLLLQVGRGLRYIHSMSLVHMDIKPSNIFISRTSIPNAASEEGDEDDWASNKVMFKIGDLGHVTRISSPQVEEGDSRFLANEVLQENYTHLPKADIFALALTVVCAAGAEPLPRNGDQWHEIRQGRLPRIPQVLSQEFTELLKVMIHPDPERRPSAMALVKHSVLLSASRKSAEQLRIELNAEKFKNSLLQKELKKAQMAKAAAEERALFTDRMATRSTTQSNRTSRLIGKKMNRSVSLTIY
Chain of Protein polybromo-1 (Homo sapiens) (Q86U86 whole entry): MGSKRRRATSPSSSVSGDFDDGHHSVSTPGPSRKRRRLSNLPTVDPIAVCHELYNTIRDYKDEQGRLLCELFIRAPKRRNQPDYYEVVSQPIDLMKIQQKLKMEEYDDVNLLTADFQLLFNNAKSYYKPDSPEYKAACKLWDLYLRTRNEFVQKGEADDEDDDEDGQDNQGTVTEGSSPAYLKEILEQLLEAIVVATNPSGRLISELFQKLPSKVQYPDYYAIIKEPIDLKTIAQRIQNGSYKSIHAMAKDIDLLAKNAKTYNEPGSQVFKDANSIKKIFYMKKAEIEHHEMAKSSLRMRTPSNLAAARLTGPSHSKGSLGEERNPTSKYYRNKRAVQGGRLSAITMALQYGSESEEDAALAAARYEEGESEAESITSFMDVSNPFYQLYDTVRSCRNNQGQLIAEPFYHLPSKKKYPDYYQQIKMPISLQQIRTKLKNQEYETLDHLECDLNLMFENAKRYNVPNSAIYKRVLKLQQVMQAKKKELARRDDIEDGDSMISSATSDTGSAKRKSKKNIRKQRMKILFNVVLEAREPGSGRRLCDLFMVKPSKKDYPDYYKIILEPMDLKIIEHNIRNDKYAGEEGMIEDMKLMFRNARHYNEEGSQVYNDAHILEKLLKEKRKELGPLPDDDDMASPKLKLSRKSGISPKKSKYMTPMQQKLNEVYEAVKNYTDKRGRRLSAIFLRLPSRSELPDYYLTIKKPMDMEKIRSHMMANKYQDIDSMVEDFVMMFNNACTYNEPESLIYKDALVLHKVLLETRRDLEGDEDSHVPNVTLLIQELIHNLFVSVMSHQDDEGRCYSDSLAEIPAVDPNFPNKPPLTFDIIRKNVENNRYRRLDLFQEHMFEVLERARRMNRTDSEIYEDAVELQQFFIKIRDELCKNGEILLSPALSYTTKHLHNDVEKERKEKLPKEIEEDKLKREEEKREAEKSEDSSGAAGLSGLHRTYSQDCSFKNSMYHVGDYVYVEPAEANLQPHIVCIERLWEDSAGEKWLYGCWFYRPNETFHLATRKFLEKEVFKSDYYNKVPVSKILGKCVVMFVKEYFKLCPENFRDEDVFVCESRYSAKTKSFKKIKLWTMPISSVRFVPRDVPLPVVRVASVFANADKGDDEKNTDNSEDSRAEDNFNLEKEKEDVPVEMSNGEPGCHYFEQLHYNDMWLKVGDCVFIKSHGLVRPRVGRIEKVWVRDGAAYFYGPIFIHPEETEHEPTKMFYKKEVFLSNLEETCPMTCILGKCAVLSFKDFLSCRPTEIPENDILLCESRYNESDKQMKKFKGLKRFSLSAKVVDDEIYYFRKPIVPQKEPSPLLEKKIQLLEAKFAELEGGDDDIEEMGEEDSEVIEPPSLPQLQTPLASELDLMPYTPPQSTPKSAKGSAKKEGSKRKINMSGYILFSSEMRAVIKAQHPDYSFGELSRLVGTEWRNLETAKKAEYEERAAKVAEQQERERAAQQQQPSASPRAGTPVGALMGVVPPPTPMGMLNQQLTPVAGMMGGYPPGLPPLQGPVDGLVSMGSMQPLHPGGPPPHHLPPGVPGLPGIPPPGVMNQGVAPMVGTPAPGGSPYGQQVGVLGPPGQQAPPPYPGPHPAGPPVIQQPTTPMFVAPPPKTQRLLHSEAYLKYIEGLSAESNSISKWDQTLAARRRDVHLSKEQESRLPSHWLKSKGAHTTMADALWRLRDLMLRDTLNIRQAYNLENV
Chain of Ribosomal protein S6 kinase alpha-3 (P51812 whole entry): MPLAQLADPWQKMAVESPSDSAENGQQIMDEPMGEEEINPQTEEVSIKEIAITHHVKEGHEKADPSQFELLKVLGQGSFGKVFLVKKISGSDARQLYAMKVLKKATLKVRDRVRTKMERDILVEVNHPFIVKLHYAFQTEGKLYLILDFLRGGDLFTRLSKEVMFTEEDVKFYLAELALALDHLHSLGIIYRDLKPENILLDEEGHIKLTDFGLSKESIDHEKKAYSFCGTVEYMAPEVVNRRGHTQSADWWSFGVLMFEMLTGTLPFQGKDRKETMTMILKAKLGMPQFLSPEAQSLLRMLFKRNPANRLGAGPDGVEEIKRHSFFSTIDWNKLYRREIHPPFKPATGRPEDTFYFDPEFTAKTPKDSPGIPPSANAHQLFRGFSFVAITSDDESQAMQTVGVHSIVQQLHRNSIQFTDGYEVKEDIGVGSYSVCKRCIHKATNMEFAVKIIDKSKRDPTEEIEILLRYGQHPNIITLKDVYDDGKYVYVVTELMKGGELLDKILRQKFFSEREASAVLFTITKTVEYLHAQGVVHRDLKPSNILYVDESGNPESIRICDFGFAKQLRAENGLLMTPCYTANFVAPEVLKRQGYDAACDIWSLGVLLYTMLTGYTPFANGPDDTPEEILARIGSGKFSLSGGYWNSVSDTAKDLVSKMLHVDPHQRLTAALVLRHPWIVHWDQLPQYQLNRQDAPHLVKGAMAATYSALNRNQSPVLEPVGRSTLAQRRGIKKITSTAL

In experiment [1], `CN(C)CCOc1ccc(-c2nc(-c3ccncc3)c(-c3ccc4c(c3)CC/C4=N\O)[nH]2)cc1` yielded a % of control of 100%.

For `Nc1cnc(N2CCc3cc(S(=O)(=O)Nc4c(F)cc(Cl)cc4F)cc(N4CCCC4=O)c32)nc1` [TP-020n], the % of control in experiment [2] was determined as 83%.

For the compound `CCC(=O)N1CC[C@H](Nc2ncnc3c2CN(c2cnc(OC)c(C(F)(F)F)c2)CC3)C1` [LENIOLISIB], the IC50 in experiment [3] was more than 30 µM.

Regarding `CC[C@@H]1[C@H](F)C(=O)N[C@@H]1COc1nccc2cc(C(N)=O)c(OC)cc12` [ZIMLOVISERTIB], the % of inhibition in experiment [4] turned out to be 10.3%.

In experiment [5], `CCN(CC)CCCCNc1ncc2cc(-c3cc(OC)cc(OC)c3)c(NC(=O)NC(C)(C)C)nc2n1` had a % of control of 100%.

The compound `Cc1cc(F)c(C(=O)Nc2cccc(-c3nncn3C(C)C)n2)cc1-n1cnc(C2CC2)c1` returned a % of control in experiment [6] of 46%.

Take `Cc1cc(CN)cc(C)c1-c1ncn(C)c1-c1cncn1C`: the dTM in experiment [7] was -2.3 K.
